Source: ChEMBL document CHEMBL1148212, “New sphingosines from a gorgonian, Pseudopterogorgia australiensis Ridley, of the Indian Ocean” (J Nat Prod, 2004)
The source made the active and inactive calls.

Tests used:
Type in all cases: functional, organism-based
Proteus vulgaris = assay: Antimicrobial activity against Proteus vulgaris at 1 mg/mL by cup diffusion method
Escherichia coli = assay: Antimicrobial activity against Escherichia coli at 1 mg/mL by cup diffusion method
Candida albicans = assay: Antimicrobial activity against Candida albicans
Aspergillus niger = assay: Antimicrobial activity against Aspergillus niger
Staphylococcus aureus = assay: Antimicrobial activity against Staphylococcus aureus at 1 mg/mL by cup diffusion method
Bacillus pumilus = assay: Antimicrobial activity against Bacillus pumilus at 1 mg/mL by cup diffusion method
Pseudomonas aeruginosa = assay: Antimicrobial activity against Pseudomonas aeruginosa at 1 mg/mL by cup diffusion method
Bacillus subtilis = assay: Antimicrobial activity against Bacillus subtilis at 1 mg/mL by cup diffusion method

Measured: Activity

CCCCCCCCCCCCC/C=C/[C@@H](O)[C@H](CO)NC(=O)CCCCCCCCCCCCCCCC
inactive: Candida albicans | Aspergillus niger
active: Proteus vulgaris | Escherichia coli | Staphylococcus aureus | Bacillus pumilus | Pseudomonas aeruginosa | Bacillus subtilis

CCCCCCCCCCCCCCCCCCCCCC(=O)N[C@@H](CO)[C@H](O)CCCCCCCCCCCCCCCC
inactive: Candida albicans | Aspergillus niger
active: Proteus vulgaris | Escherichia coli | Staphylococcus aureus | Bacillus pumilus | Pseudomonas aeruginosa | Bacillus subtilis

CCCCCCCCCCCCCCCCC[C@@H](O)C(=O)N[C@@H](CO)[C@H](O)[C@H](O)CCCCCCCCCCCCCCC
active: Proteus vulgaris | Escherichia coli | Staphylococcus aureus | Bacillus pumilus | Pseudomonas aeruginosa | Bacillus subtilis
inactive: Candida albicans | Aspergillus niger
